The term IC50 denotes the midpoint of a concentration-inhibition curve.

Like-named read-outs stand apart in the source and are kept apart here.

Drawing on patent US20130344026A1, “Dimeric Smac Mimetics” (priority 2009, published 2013), this text covers IC50 for three compounds.

The assay has as its system HCC461. The assay is described as follows: cell viability assay in HCC461, compound alone. Format: cell-based. The conditions noted are these: compound alone, read-out: IC50 (uM) in cell viability assay in HCC461.

`CN[C@@H](C)C(=O)N[C@H](C(=O)N1C[C@@H](NC(=O)c2ccc(-c3ccc(C(=O)N[C@H]4C[C@@H](C(=O)NC5CCCc6ccccc65)N(C(=O)[C@@H](NC(=O)[C@H](C)NC)C(C)(C)C)C4)cn3)nc2)CC1C(=O)N[C@@H]1CCCc2ccccc21)C(C)(C)C` (stereo partly drawn) [Compound P3-40]: the half-maximal inhibitory concentration (IC50) (HCC461, HCC461 cells) was determined as 0.005 µM.

On to `CN[C@@H](C)C(=O)N[C@H](C(=O)N1C[C@@H](NC(=O)c2cc(C(=O)N[C@H]3C[C@@H](C(=O)N[C@H](C)c4ccccc4)N(C(=O)[C@@H](NC(=O)[C@H](C)NC)C(C)C)C3)[nH]n2)C[C@H]1C(=O)N[C@H](C)c1ccccc1)C(C)C` [Compound P3-82], for which, for the setting “HCC461, HCC461 cells”, the concentration for half-maximal inhibition (IC50) is 0.063 µM.

On to `CN[C@@H](C)C(=O)N[C@H](C(=O)N1C[C@@H](NC(=O)C2CCCC(C(=O)N[C@H]3C[C@@H](C(=O)N[C@H](C)C4CCCCC4)N(C(=O)[C@@H](NC(=O)[C@H](C)NC)C(C)(C)C)C3)C2)C[C@H]1C(=O)N[C@H](C)C1CCCCC1)C(C)(C)C` (stereo partly drawn) [Compound P3-47], for which, under “HCC461 cells”, the IC50 came out at 0.022 µM.
